Measured values published in EP0908457B1, “3-(1,2-benzisothiazol- and isoxazol-5-Y1)-2,4(1H,3H)-pyrimidinedione or thione and 3-(1,2-benzisothiazol- and isoxazol-5-y1)-4(3H)-pyrimidinone or thione herbicidal agents” (BASF AKTIENGESELLSCHAFT, priority 1997, dated 1999).

Experiments:
[1] = tested on: Oryza sativa, (L.) Tebonnet; assay: Rice tolerance to post-transplant applications under flooded paddy conditions (Example 187), ORYSAT (Rice, Tebonnet); as to herbicidal effect rating ORYSAT: meaning of each grade not given here
Cyperus iria = assay: Preemergence weed control under flooded paddy conditions, CYPIR (Rice Flatsedge); type: in vivo; settings: flooded paddy; as to herbicidal effect rating, CYPIR: meaning of each grade not given here
Sagittaria pygmaea, L. = assay: Preemergence weed control under flooded paddy conditions, SAGPY (Arrowhead (Pygmaea)); type: in vivo; settings: flooded paddy; as to herbicidal effect rating, SAGPY: meaning of each grade not given here
[2] = tested on: Echinochloa oryzoides (Ard.) Fritsch.; assay: Preemergence weed control under flooded paddy conditions, ECHORC (Watergrass (Calif.)); type: in vivo; settings: flooded paddy; as to herbicidal effect rating, ECHORC: meaning of each grade not given here
[3] = tested on: Cyperus serotinus, Rottb.; assay: Preemergence weed control under flooded paddy conditions, CYPSE (Flatsedge); type: in vivo; as to herbicidal effect rating, CYPSE: meaning of each grade not given here
[4] = tested on: Monochoria vaginalis, Presl.; assay: Preemergence weed control under flooded paddy conditions, MOOVA (Monochoria); type: in vivo; settings: flooded paddy; as to herbicidal effect rating, MOOVA: meaning of each grade not given here
[5] = Rate 0.1250 kg/ha, rated three to four weeks after treatment
[6] = Rate 0.2500 kg/ha, rated three to four weeks after treatment
[7] = Rate 0.0320 kg/ha, preemergence, rated three to four weeks after treatment
[8] = Rate 0.0620 kg/ha, preemergence, rated three to four weeks after treatment
[9] = Rate 0.1250 kg/ha, preemergence, rated three to four weeks after treatment
[10] = Rate 0.2500 kg/ha, preemergence, rated three to four weeks after treatment
[11] = Rate 0.0320 kg/ha, preemergence, rated 3-4 weeks after treatment
[12] = Rate 0.0620 kg/ha, preemergence, rated 3-4 weeks after treatment
[13] = Rate 0.1250 kg/ha, preemergence, rated 3-4 weeks after treatment
[14] = Rate 0.2500 kg/ha, preemergence, rated 3-4 weeks after treatment
[15] = Rate 0.5000 kg/ha, preemergence, rated 3-4 weeks after treatment
[16] = Rate 0.5000 kg/ha, preemergence, rated three to four weeks after treatment
[17] = 0.0313 kg/ha, preemergence weeds, rated three to four weeks after treatment
[18] = 0.0625 kg/ha, preemergence weeds, rated three to four weeks after treatment
[19] = 0.1250 kg/ha, preemergence weeds, rated three to four weeks after treatment
[20] = 0.2500 kg/ha, preemergence weeds, rated three to four weeks after treatment
[21] = Rate 0.0313 kg/ha, preemergence, rated three to four weeks after treatment
[22] = Rate 0.0625 kg/ha, preemergence, rated three to four weeks after treatment

CNC(=O)OCc1nsc2ccc(-n3c(=O)cc(C(F)(F)F)n(C)c3=O)cc12 [Example 374, 2,4(1H,3H)-Pyrimidinedione, 3-[3-(hydroxymethyl)1,2-benzisothiazol-5-yl]-1-methyl-6-(trifluoromethyl)-, methylcarbamate (ester)]
herbicidal effect rating ORYSAT ([1]; Rate 0.0320 kg/ha, rated three to four weeks after treatment): 4.0
herbicidal effect rating ORYSAT ([1]; Rate 0.0620 kg/ha, rated three to four weeks after treatment): 4.0
herbicidal effect rating ORYSAT [1, 5]: 6.0
herbicidal effect rating ORYSAT [1, 6]: 7.0
herbicidal effect rating, CYPIR (Cyperus iria; [7]): 6.0
herbicidal effect rating, CYPIR (Cyperus iria; [8]): 9.0
herbicidal effect rating, CYPIR (Cyperus iria; [9]): 9.0
herbicidal effect rating, CYPIR (Cyperus iria; [10]): 9.0
herbicidal effect rating, SAGPY (Sagittaria pygmaea, L.; [7]): 2.0
herbicidal effect rating, SAGPY (Sagittaria pygmaea, L.; [8]): 3.0
herbicidal effect rating, SAGPY (Sagittaria pygmaea, L.; [9]): 6.0
herbicidal effect rating, SAGPY (Sagittaria pygmaea, L.; [10]): 9.0
herbicidal effect rating, ECHORC [2, 7]: 3.0
herbicidal effect rating, ECHORC [2, 8]: 3.0
herbicidal effect rating, ECHORC [2, 9]: 4.0
herbicidal effect rating, ECHORC [2, 10]: 6.0
herbicidal effect rating, CYPSE [3, 7]: 0.0
herbicidal effect rating, CYPSE [3, 8]: 0.0
herbicidal effect rating, CYPSE [3, 9]: 0.0
herbicidal effect rating, CYPSE [3, 10]: 5.0
herbicidal effect rating, MOOVA [4, 7]: 9.0
herbicidal effect rating, MOOVA [4, 8]: 9.0
herbicidal effect rating, MOOVA [4, 9]: 9.0
herbicidal effect rating, MOOVA [4, 10]: 9.0

CNC(=O)COc1ccc(C)cc1-c1nsc2ccc(-n3c(=O)cc(C(F)(F)F)n(C)c3=O)cc12 [Example 561, Acetamide, 2-{{2-{5-[3,6-dihydro-3-methyl-2,6-dioxo-4-(trifluoromethyl)-1(2H)-pyrimidinyl]-1,2-benzisothiazol-3-yl}-p-tolyl}oxy}-N-methyl-]
herbicidal effect rating ORYSAT ([1]; Rate 0.0320 kg/ha, rated 3-4 weeks after treatment): 2.5
herbicidal effect rating ORYSAT ([1]; Rate 0.0620 kg/ha, rated 3-4 weeks after treatment): 4.0
herbicidal effect rating ORYSAT ([1]; Rate 0.1250 kg/ha, rated 3-4 weeks after treatment): 3.5
herbicidal effect rating ORYSAT ([1]; Rate 0.2500 kg/ha, rated 3-4 weeks after treatment): 4.5
herbicidal effect rating ORYSAT ([1]; Rate 0.5000 kg/ha, rated 3-4 weeks after treatment): 2.0
herbicidal effect rating, CYPIR (Cyperus iria; [11]): 3.0
herbicidal effect rating, CYPIR (Cyperus iria; [12]): 6.0
herbicidal effect rating, CYPIR (Cyperus iria; [13]): 8.5
herbicidal effect rating, CYPIR (Cyperus iria; [14]): 9.0
herbicidal effect rating, CYPIR (Cyperus iria; [15]): 6.0
herbicidal effect rating, SAGPY (Sagittaria pygmaea, L.; [11]): 0.0
herbicidal effect rating, SAGPY (Sagittaria pygmaea, L.; [12]): 0.0
herbicidal effect rating, SAGPY (Sagittaria pygmaea, L.; [13]): 1.0
herbicidal effect rating, SAGPY (Sagittaria pygmaea, L.; [14]): 3.0
herbicidal effect rating, SAGPY (Sagittaria pygmaea, L.; [15]): 0.0
herbicidal effect rating, ECHORC [2, 11]: 3.6
herbicidal effect rating, ECHORC [2, 12]: 4.8
herbicidal effect rating, ECHORC [2, 13]: 6.4
herbicidal effect rating, ECHORC [2, 14]: 9.0
herbicidal effect rating, ECHORC [2, 15]: 9.0
herbicidal effect rating, CYPSE [3, 11]: 0.0
herbicidal effect rating, CYPSE [3, 12]: 0.0
herbicidal effect rating, CYPSE [3, 13]: 0.0
herbicidal effect rating, CYPSE [3, 14]: 0.0
herbicidal effect rating, CYPSE [3, 15]: 9.0
herbicidal effect rating, MOOVA [4, 11]: 9.0
herbicidal effect rating, MOOVA [4, 12]: 9.0
herbicidal effect rating, MOOVA [4, 13]: 9.0
herbicidal effect rating, MOOVA [4, 14]: 9.0
herbicidal effect rating, MOOVA [4, 15]: 9.0

CC(=O)Nc1nnc(S(=O)(=O)NC(=O)COc2ccc(C)cc2-c2nsc3ccc(-n4c(=O)cc(C(F)(F)F)n(C)c4=O)cc23)s1 [Example 269, Acetamide, N-[(5-acetamido-1,3,4-thiadiazol-2-yl)sulfonyl]-2-{{2-{5-[3,6-dihydro-3-methyl-2,6-dioxo-4-(trifluoromethyl)-1(2H)-pyrimidinyl]-1,2-benzisothiazol-3-yl}-p-tolyl}oxy}-]
ORYSAT herbicidal effect rating [1, 6]: 0.0
ORYSAT herbicidal effect rating ([1]; Rate 0.5000 kg/ha, rated three to four weeks after treatment): 0.0
CYPIR herbicidal effect rating (Cyperus iria; [10]): 0.0
CYPIR herbicidal effect rating (Cyperus iria; [16]): 0.0
SAGPY herbicidal effect rating (Sagittaria pygmaea, L.; [10]): 0.0
SAGPY herbicidal effect rating (Sagittaria pygmaea, L.; [16]): 0.0
ECHORC herbicidal effect rating [2, 10]: 0.0
ECHORC herbicidal effect rating [2, 16]: 4.0
CYPSE herbicidal effect rating [3, 10]: 0.0
CYPSE herbicidal effect rating [3, 16]: 0.0
MOOVA herbicidal effect rating [4, 10]: 0.0
MOOVA herbicidal effect rating [4, 16]: 9.0

Cn1c(C(F)(F)F)cc(=O)n(-c2ccc3snc(COCCCl)c3c2)c1=O [Example 198, 3-{3-[(2-Chloroethoxy)methyl]-1,2-benzisothiazol-5-yl}-1-methyl-6-(trifluoromethyl)-2,4(1H,3H)-pyrimidinedione]
herbicidal effect rating, ORYSAT (rice tolerance) ([1]; 0.0313 kg/ha, rated three to four weeks after treatment): 4.0
herbicidal effect rating, ORYSAT (rice tolerance) ([1]; 0.0625 kg/ha, rated three to four weeks after treatment): 7.0
herbicidal effect rating, ORYSAT (rice tolerance) ([1]; 0.1250 kg/ha, rated three to four weeks after treatment): 8.0
herbicidal effect rating, ORYSAT (rice tolerance) ([1]; 0.2500 kg/ha, rated three to four weeks after treatment): 9.0
herbicidal effect rating, CYPIR (Cyperus iria; [17]): 0.0
herbicidal effect rating, CYPIR (Cyperus iria; [18]): 2.0
herbicidal effect rating, CYPIR (Cyperus iria; [19]): 4.0
herbicidal effect rating, CYPIR (Cyperus iria; [20]): 7.0
herbicidal effect rating, SAGPY (Sagittaria pygmaea, L.; [17]): 0.0
herbicidal effect rating, SAGPY (Sagittaria pygmaea, L.; [18]): 0.0
herbicidal effect rating, SAGPY (Sagittaria pygmaea, L.; [19]): 2.0
herbicidal effect rating, SAGPY (Sagittaria pygmaea, L.; [20]): 4.0
herbicidal effect rating, ECHORC [2, 17]: 4.0
herbicidal effect rating, ECHORC [2, 18]: 6.0
herbicidal effect rating, ECHORC [2, 19]: 9.0
herbicidal effect rating, ECHORC [2, 20]: 9.0
herbicidal effect rating, CYPSE [3, 17]: 0.0
herbicidal effect rating, CYPSE [3, 18]: 2.0
herbicidal effect rating, CYPSE [3, 19]: 4.0
herbicidal effect rating, CYPSE [3, 20]: 8.0
herbicidal effect rating, MOOVA [4, 17]: 9.0
herbicidal effect rating, MOOVA [4, 18]: 9.0
herbicidal effect rating, MOOVA [4, 19]: 9.0
herbicidal effect rating, MOOVA [4, 20]: 9.0

C=CCCOCc1nsc2ccc(-n3c(=O)cc(C(F)(F)F)n(C)c3=O)cc12 [Example 223, 3-{3-[(3-Butenyloxy)methyl]-1,2-benzisothiazol-5-yl}-1-methyl-6-(trifluoromethyl)-2,4(1H,3H)-pyrimidinedione]
ORYSAT herbicidal effect rating ([1]; Rate 0.0313 kg/ha, rated three to four weeks after treatment): 7.0
ORYSAT herbicidal effect rating ([1]; Rate 0.0625 kg/ha, rated three to four weeks after treatment): 8.0
ORYSAT herbicidal effect rating [1, 5]: 8.0
ORYSAT herbicidal effect rating [1, 6]: 9.0
CYPIR herbicidal effect rating (Cyperus iria; [21]): 4.0
CYPIR herbicidal effect rating (Cyperus iria; [22]): 7.0
CYPIR herbicidal effect rating (Cyperus iria; [9]): 7.0
CYPIR herbicidal effect rating (Cyperus iria; [10]): 9.0
SAGPY herbicidal effect rating (Sagittaria pygmaea, L.; [21]): 0.0
SAGPY herbicidal effect rating (Sagittaria pygmaea, L.; [22]): 2.0
SAGPY herbicidal effect rating (Sagittaria pygmaea, L.; [9]): 6.0
SAGPY herbicidal effect rating (Sagittaria pygmaea, L.; [10]): 9.0
ECHORC herbicidal effect rating [2, 21]: 6.0
ECHORC herbicidal effect rating [2, 22]: 6.0
ECHORC herbicidal effect rating [2, 9]: 8.0
ECHORC herbicidal effect rating [2, 10]: 9.0
CYPSE herbicidal effect rating [3, 21]: 0.0
CYPSE herbicidal effect rating [3, 22]: 4.0
CYPSE herbicidal effect rating [3, 9]: 6.0
CYPSE herbicidal effect rating [3, 10]: 8.0
MOOVA herbicidal effect rating [4, 21]: 9.0
MOOVA herbicidal effect rating [4, 22]: 9.0
MOOVA herbicidal effect rating [4, 9]: 9.0
MOOVA herbicidal effect rating [4, 10]: 9.0
